Results published in ChEMBL document CHEMBL4219066, “Identification and Mitigation of Reactive Metabolites of 2-Aminoimidazole-Containing Microsomal Prostaglandin E Synthase-1 Inhibitors Terminated Due to Clinical Drug-Induced Liver Injury” (J Med Chem, 2018).

Legend:
[1] = Drug level in rat hepatocytes treated with LY3031207 at 2 uM after 4 hrs by LC-MS/MS analysis; format: ADME, cell-based, Hepatocyte
[2] = Drug level in dog hepatocytes treated with LY3031207 at 2 uM after 4 hrs by LC-MS/MS analysis; format: ADME, cell-based, Canis lupus familiaris, Hepatocyte
[3] = Drug level in human hepatocytes treated with LY3031207 at 2 uM after 4 hrs by LC-MS/MS analysis; format: ADME, cell-based, Hepatocyte
[4] = In vivo drug level in human plasma treated with LY3031207 by HPLC-MS analysis; format: ADME, organism-based
[5] = In vivo drug level in human urine treated with LY3031207 by HPLC-MS analysis; format: ADME, organism-based
[6] = Drug level in rat hepatocytes treated with LY3023703 at 2 uM after 4 hrs by LC-MS/MS analysis; format: ADME, cell-based, Hepatocyte
[7] = Drug level in human hepatocytes treated with LY3023703 at 2 uM after 4 hrs by LC-MS/MS analysis; format: ADME, cell-based, Hepatocyte
[8] = Drug level in Beagle dog plasma treated with LY3023703 at 300 to 600 mg/kg, po measured after 2 hrs post dose by LC/MS analysis; format: ADME, organism-based, Canis lupus familiaris; settings: in vivo
[9] = In vivo drug level in human plasma treated with LY3023703 by HPLC-MS analysis; format: ADME, organism-based
[10] = In vivo drug level in human urine treated with LY3023703 by HPLC-MS analysis; format: ADME, organism-based
[11] = Drug level in human hepatocytes treated with 2-Chloro-N-(4-methyl-1H-imidazol-2-yl)-5-(pivalamidomethyl)benzamide at 2 uM after 4 hrs by LC-MS/MS analysis; format: ADME, cell-based, Hepatocyte
[12] = Drug level in rat hepatocytes treated with 2-Chloro-N-(4-methyl-1H-imidazol-2-yl)-5-(pivalamidomethyl)benzamide at 2 uM after 4 hrs by LC-MS/MS analysis; format: ADME, cell-based, Hepatocyte
[13] = Drug level in human hepatocytes treated with 2 -Chloro-N-(4,5-dimethyl-1H-imidazol-2-yl)-5-(pivalamidomethyl)benzamide at 2 uM after 4 hrs by LC-MS/MS analysis; format: ADME, cell-based, Hepatocyte
[14] = Drug level in rat hepatocytes treated with 2 -Chloro-N-(4,5-dimethyl-1H-imidazol-2-yl)-5-(pivalamidomethyl)benzamide at 2 uM after 4 hrs by LC-MS/MS analysis; format: ADME, cell-based, Hepatocyte
[15] = Drug level in dog hepatocytes treated with LY3023703 at 2 uM after 4 hrs by LC-MS/MS analysis; format: ADME, cell-based, Canis lupus familiaris, Hepatocyte
[16] = Drug level in human hepatocytes treated with 2-(2-Chloro-5-(pivalamidomethyl)benzamido)-N-phenyl-1Himidazole-4-carboxamide at 2 uM after 4 hrs by LC-MS/MS analysis; format: ADME, cell-based, Hepatocyte
[17] = Drug level in rat hepatocytes treated with 2-(2-Chloro-5-(pivalamidomethyl)benzamido)-N-phenyl-1Himidazole-4-carboxamide at 2 uM after 4 hrs by LC-MS/MS analysis; format: ADME, cell-based, Hepatocyte
[18] = Drug level in dog hepatocytes treated with 2-(Difluoromethyl)-N-(4-methyl-5-(4-(trifluoromethyl)-phenyl)-1H-imidazol-2-yl)-5-(pivalamidomethyl)nicotinamide at 2 uM after 4 hrs by LC-MS/MS analysis; format: ADME, cell-based, Canis lupus familiaris, Hepatocyte

In the case of `CC(C)(C)C(=O)NCc1ccc(Cl)c(C(=O)Nc2nc(O)c[nH]2)c1`, the Drug metabolism [1] is reported as “Metabolite_Detected”, the Drug metabolism [2] is reported as “Metabolite_Detected” and the Drug metabolism [3] is reported as “Metabolite_Detected”. The Drug metabolism [4] was “Metabolite_Detected” and the Drug metabolism [5] was “Metabolite_Detected”.

With `Cc1nc(NC(=O)c2cc(CNC(=O)C(C)CO)cnc2C(F)F)[nH]c1-c1ccc(C(F)(F)F)cc1` (stereo not given) the Drug metabolism [6] was “Metabolite_Detected”, the Drug metabolism [7] was “Metabolite_Detected” and the Drug metabolism [8] was “Metabolite_Detected”. For the same compound, the Drug metabolism [9] was “Metabolite_Detected” and the Drug metabolism [10] was “Metabolite_Detected”.

With `Cc1nc(N[C@@H]2O[C@H](C(=O)O)[C@@H](O)[C@H](O)[C@H]2O)[nH]c1-c1ccc(C(F)(F)F)cc1` the Drug metabolism [8] was “Metabolite_Detected”.

In the case of `Cc1nc(N)[nH]c1-c1ccc(C(F)(F)F)cc1`, the Drug metabolism [6] is reported as “Metabolite_Detected”, the Drug metabolism [7] is reported as “Metabolite_Detected” and the Drug metabolism [8] is reported as “Metabolite_Detected”.

For `CC(C)(C)C(=O)NCc1ccc(Cl)c(C(=O)NC(=N)N)c1`, the Drug metabolism [4] was “Metabolite_Detected”, the Drug metabolism [5] was “Metabolite_Detected” and the Drug metabolism [11] was “Metabolite_Detected”. For the same compound, the Drug metabolism [12] was “Metabolite_Detected”, the Drug metabolism [13] was “Metabolite_Detected” and the Drug metabolism [14] was “Metabolite_Detected”.

With `C=C(C)C(=O)NCc1cnc(C(F)F)c(C(=O)Nc2nc(C)c(-c3ccc(C(F)(F)F)cc3)[nH]2)c1` the Drug metabolism [6] was “Metabolite_Detected” and the Drug metabolism [9] was “Metabolite_Detected”.

In the case of `CC(=O)Nc1nc(C)c(-c2ccc(C(F)(F)F)cc2)[nH]1`, the Drug metabolism [8] is reported as “Metabolite_Detected”.

In the case of `CC(C)(CO)C(=O)NCc1ccc(Cl)c(C(=O)Nc2ncc[nH]2)c1`, the Drug metabolism [1] is reported as “Metabolite_Detected”, the Drug metabolism [2] is reported as “Metabolite_Detected” and the Drug metabolism [3] is reported as “Metabolite_Detected”. For the same compound, the Drug metabolism [4] was “Metabolite_Detected” and the Drug metabolism [5] was “Metabolite_Detected”.

With `CC(C)(C)C(=O)NCc1ccc(Cl)c(C(=O)NC2=NC(O)C(O)N2)c1` (stereo not given) the Drug metabolism [1] was “Metabolite_Detected”, the Drug metabolism [2] was “Metabolite_Detected” and the Drug metabolism [3] was “Metabolite_Detected”. For the same compound, the Drug metabolism [5] was “Metabolite_Detected”.

For `Cc1nc(NC(=O)c2cc(CNC(=O)C(C)(C)O)cnc2C(F)F)[nH]c1-c1ccc(C(F)(F)F)cc1`, the Drug metabolism [6] was “Metabolite_Detected”, the Drug metabolism [15] was “Metabolite_Detected” and the Drug metabolism [7] was “Metabolite_Detected”. The Drug metabolism [8] was “Metabolite_Detected”, the Drug metabolism [9] was “Metabolite_Detected” and the Drug metabolism [10] was “Metabolite_Detected”.

In the case of `CC(C)(CO)C(=O)NCc1ccc(Cl)c(C(=O)Nc2nc(C(=O)Nc3ccccc3)c[nH]2)c1`, the Drug metabolism [16] is reported as “Metabolite_Detected” and the Drug metabolism [17] is reported as “Metabolite_Detected”.

In the case of `Cc1nc(NC(=O)c2cc(CNC(=O)C(C)(C)CO)ccc2Cl)[nH]c1C`, the Drug metabolism [13] is reported as “Metabolite_Detected” and the Drug metabolism [14] is reported as “Metabolite_Detected”.

In the case of `Cc1c[nH]c(NC(=O)c2cc(CNC(=O)C(C)(C)CO)ccc2Cl)n1`, the Drug metabolism [11] is reported as “Metabolite_Detected” and the Drug metabolism [12] is reported as “Metabolite_Detected”.

For `Cc1[nH]c(NC(=O)c2cc(CNC(=O)C(C)(C)C)ccc2Cl)nc1CO`, the Drug metabolism [13] was “Metabolite_Detected” and the Drug metabolism [14] was “Metabolite_Detected”.

In the case of `CC(C)(C)C(=O)NCc1ccc(Cl)c(C(=O)O)c1`, the Drug metabolism [16] is reported as “Metabolite_Detected” and the Drug metabolism [17] is reported as “Metabolite_Detected”.

With `CC(C)(C)C(=O)NCc1cnc(C(F)F)c(C(=O)Nc2nc(CO)c(-c3ccc(C(F)(F)F)cc3)[nH]2)c1` the Drug metabolism [18] was “Metabolite_Detected”.

In the case of `Cc1nc(NC(=O)c2cc(CN)cnc2C(F)F)[nH]c1-c1ccc(C(F)(F)F)cc1`, the Drug metabolism [10] is reported as “Metabolite_Detected”.

For `CC(C)(CO)C(=O)NCc1ccc(Cl)c(C(=O)NC(=N)N)c1`, the Drug metabolism [5] was “Metabolite_Detected”.

With `CC(C)C(=O)NCc1cnc(C(F)F)c(C(=O)NC(=N)N)c1` the Drug metabolism [6] was “Metabolite_Detected”, the Drug metabolism [15] was “Metabolite_Detected” and the Drug metabolism [7] was “Metabolite_Detected”. For the same compound, the Drug metabolism [10] was “Metabolite_Detected”.
